Test results published in patent US20060258581A1, “Methods and composition for derepressions of IAP-inhibited caspase” (priority 2001, published 2006).
“Also recorded” adds a separate entry of the source.

How the values were obtained:
[1] = system: Du145 prostate cancer cells; test: Combination with anticancer drugs, MTT assay; type: cell-based; details: 10 μM, 48 hours
Procedure: The percentage of viable cells relative to control was determined using a MTT (3-(4,5-dimethylthiazolyl-2)-2,5-diphenyltetrazolium bromide) assay which is commercially available (Sigma). […] Similar results were obtained for PPC1 (FIG. 31b) and PC3 (FIG. 31c) prostate cancer cells treated with VP16, DOX, or TAXOL, and for H460 (FIG. 31d) lung cancer cells treated with VP16 or DOX.

[2] = system: caspase-3 and caspase-7 activity in Jurkat cells; test: Caspase-3 and caspase-7 activity in whole Jurkat cells, cell permeable substrate; type: cell-based; details: 8 μM, 20 hours
[3] = biological target: full length XIAP (Homo sapiens, UniProt P98170); test: Potency of IAP antagonists in vitro (Table VIII; caspase derepression / SMAC competition with full length XIAP)
full length XIAP, sequence (P98170 whole entry): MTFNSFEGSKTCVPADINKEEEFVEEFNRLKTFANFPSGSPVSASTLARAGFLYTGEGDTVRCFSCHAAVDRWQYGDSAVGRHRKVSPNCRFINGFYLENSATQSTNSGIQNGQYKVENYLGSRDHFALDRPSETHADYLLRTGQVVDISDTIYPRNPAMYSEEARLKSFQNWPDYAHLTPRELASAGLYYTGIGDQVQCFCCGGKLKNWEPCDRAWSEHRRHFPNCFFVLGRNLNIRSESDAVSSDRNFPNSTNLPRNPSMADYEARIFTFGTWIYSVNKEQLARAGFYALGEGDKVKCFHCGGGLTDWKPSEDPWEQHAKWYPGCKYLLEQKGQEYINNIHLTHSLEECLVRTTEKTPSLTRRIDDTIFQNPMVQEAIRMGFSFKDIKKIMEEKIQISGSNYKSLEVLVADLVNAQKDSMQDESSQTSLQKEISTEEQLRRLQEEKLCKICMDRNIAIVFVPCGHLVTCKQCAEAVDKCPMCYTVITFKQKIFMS

[4] = system: mouse embryo fibroblasts, human prostate epithelial cells, peripheral blood lymphocytes; test: Normal cells (MEFs, human prostate epithelial cells, PBLs), 2 days, annexin-V; type: cell-based; set-up: dose or concentration left out as unconfirmed
Procedure: After 2 days, cell viability was assessed by annexin-V staining.

[5] = system: PPC1 prostate cancer cells; test: PPC1 prostate cancer xenograft in Balb/C nu-/nu- mice; type: in vivo; details: 30 mg/kg i.p. for 2 or 3 days
Description: Similar data was obtained using TPI 1396-22 (see FIGS. 33a and 33b). […] In FIG. 33b, the mice were sacrificed at day 19 and the tumors excised and weighed.

SMILES: COc1ccc(CCN2CCC[C@@H]2CN(C(=O)Nc2ccccc2)[C@@H](CNC(=O)Nc2ccccc2)CC2CCCCC2)cc1 [TPI 1396-34]
- effect on dose-dependent cytotoxicity of VP16, DOX and TAXOL [1]: significantly increased dose-dependent cytotoxicity
- caspase activation in whole cells [2]: induced caspase activation
- EC50 [3]: 77.1 µM
- increase of percentage cell death above background [4]: less than one-fold
- tumor size / growth, PPC1 xenograft [5]: reduced tumor size; also recorded: significantly slowed the rate of growth
